Measurements published in patent publication US20260015352A1, “METHYLTRANSFERASE INHIBITOR AND USE THEREOF” (CYTOSINLAB THERAPEUTICS CO., LTD., priority 2022, published 2026).

System: G401 cells
Test: G401 ELISA test
Format: cell-based
Conditions: Homo sapiens, G-401; G401 cells treated with compounds for 72 hours; ELISA detecting K27 and H3; read-out: G401_ELISA IC50
Description: • Plate Reader: Envision (Perkinelmner); plate shaker: IKA MTS 2/4; plate Washer: BioTek microplate wisher 405 select; Cell counter: Counterstar (Ruiyu-biotech); Cell culture incubator: MCO-15AC (ThermoFisher); Pipette: BioHit Multichannel. Pipette: 0.2-10 μL, 10-300 μL, 50-1200 μL; Centrifuge: Thermo Centrifuge ST 40R; Pure water system: Millipore Milli-Q Reference system; Refrigerator: Haier −80 degree, −20 degree, and 4-degree refrigerators; cell cryopreservation box: Mr. Frosty™ Gradient Cooling Box Cat #5100-0001
• McCoys 5A (Modified) culture medium (ATCC); FBS (Gibco); 0.25% Trypsin/EDTA (Gibco); PBS (Hyclone); Penicillin/Streptomycin(100×) (Gibco); DMSO (Sigma); 384 cell culture plate (Corning); 384 detection plate (Greiner); 96 well plate (compound dilution) (Haimen, Qunchao); T75 Cell Culture Bottle (Corning)
G401 cells were seeded in a 384-well cell culture plate and incubated overnight at 37° C. in a 5% CO2 cell culture incubator, after which the cells were treated with compounds of different concentrations for 72 hours. The 384-well cell culture plate was taken out and upside down in a centrifuge to centrifugeat 300 rpm for 1 minute. After centrifugation, the 384-well cell culture plate was washed twice with PBS, added with lysis solution and lysed for 60 minutes. Then neutralization buffer was added for mixing and incubation was continued for 30 minutes. 20 ul (for detecting K27) and 10 ul (for detecting H3) of cell lysate were extracted from the 384-well cell culture plate and transferred to a 384 ELISA detection plate and incubate overnight at 4° C. The next day, the 384 ELISA plate was taken out and washed 5 times with TBST in a microplate washer. Then, the plate was added with a blocking solution and sealed at room temperature for 1 hour. The blocking solution was discarded and the primary antibody was added and then the plate was incubated at room temperature for 1 hour. After incubation, the plate was washed with TBST 5 times in a microplate washer, then added with secondary antibody and incubated at room temperature for 1 hour. After incubation, the plate was washed with TBST 5 times in a microplate washer, and finally added with color developer for color development. The plate was read with Envision plate reader. The obtained data was converted into inhibition rate using the following calculation method: % Inhibition rate=100−100*(compound absorbance−positive control absorbance)/(negative control absorbance−positive control absorbance), and then the inhibition rate data was subjected to curve fitting using the “logarithmic (inhibitor) and reaction-variable slope (four parameters)” model in GraphPad Prism 5 software.
The inhibition rate of the compound was calculated as follows: […]
The compounds of the present invention were tested according to the above experimental method, and some results were shown in Table 3. The test results were classified by A, B, and C, wherein A represents IC50≤0.1 uM; B represents 0.1 uM<IC50≤1 uM; C represents IC50>1 uM

SMILES | IC50 [nM]
Cc1ccc2ccc(NC34CCC([C@H](C)Nc5ncc(CNC6CS(=O)(=O)C6)cn5)(CC3)CC4)nc2c1Cl [PA179] | ≤ 100
COc1nccc2ccc(Nc3ccc([C@H](C)Nc4ncc(CNC5CCS(=O)(=O)C5)cn4)cc3F)nc12 (stereo partly shown) [PA182] | ≤ 100
COc1nccc2ccc(Nc3ccc(CNc4ncc(CNCc5ccno5)cn4)cc3F)nc12 [PA258] | ≤ 100
COc1nccc2ccc(Nc3ccc(CNc4ncc([C@@H](C)C(=O)NC5COC5)cn4)cc3)nc12 (single isomer, unassigned) [PA043, 2-[2-[[4-[(8-methoxy-1,7-naphthyridin-2-yl)amino]phenyl]methylamino]pyrimidin-5-yl]-N-(oxetan-3-yl) propanamide] | 100 to 1000
COc1nccc2ccc(Nc3ccc([C@H](C)Nc4ncc(/C=C/C5CCS(=O)(=O)CC5)cn4)cc3F)nc12 [PA210] | 100 to 1000
COc1nccc2ccc(Nc3ccc([C@H](C)Nc4ncc(N5CCC(C#N)CC5)cn4)cc3F)nc12 [PA214] | 100 to 1000
COc1nccc2ccc(NC34CCC(CNc5ncc([C@H](C)C(=O)NC6COC6)cn5)(CC3)CC4)nc12 [PA078] | 100 to 1000
C[C@@H](C(=O)NC1COC1)c1cnc(NCc2ccc(Nc3ccc4ccnc(Cl)c4n3)cc2)nc1 [PA055] | > 1000
COc1nccc2ccc(Nc3ccc(CNc4ccc(CC(=O)NC5COC5)cc4)cc3)nc12 [PA081] | 100 to 1000
CC(c1cnc(N[C@@H](C)C23CCC(Nc4ccc5ccnc(Cl)c5n4)(CC2)CC3)nc1)N1CCS(=O)(=O)CC1 (stereo partly shown) [PA184] | ≤ 100
COc1nccc2ccc(Nc3ccc(CNc4ncc(C(C)C(=O)NC5COC5)cn4)cc3)nc12 (racemic) [PA041, 2-[2-[[4-[(8-methoxy-1,7-naphthyridin-2-yl)amino]phenyl]methylamino]pyrimidin-5-yl]-N-(oxetan-3-yl) propanamide] | ≤ 100
COc1nccc2ccc(Nc3ccc([C@H](C)Nc4ncc(CC(=O)NCCC#N)cn4)cc3F)nc12 [PA200] | ≤ 100
O=C(Cc1cnc(NCc2ccc(Nc3ccc4c(Cl)nccc4n3)cc2)nc1)NC1COC1 [PA243] | > 1000
COc1nccc2ccc(Nc3ccc(CNc4ncc(CNCc5cnn(C)c5)cn4)cc3F)nc12 [PA249] | > 1000
COc1nccc2ccc(Nc3ccc([C@H](C)Nc4ncc(CNCCC#N)cn4)cc3F)nc12 [PA181] | ≤ 100
COc1nccc2ccc(Nc3ccc([C@H](C)Nc4ncc(C(N)C(=O)NC5COC5)cn4)cc3F)nc12 (stereo partly shown) [PA205] | ≤ 100
CC(C(=O)NC1COC1)c1cnc(NCc2ccc(Nc3ccc4ccnc(Cl)c4n3)cc2)nc1 (stereo not shown) [PA044] | 100 to 1000
COc1nccc2ccc(Nc3ccc(CNc4ncc(CC(=O)N5CC6(COC6)C5)cn4)cc3F)nc12 [PA251] | > 1000
C[C@H](Nc1ncc(CNCCC#N)cn1)C12CCC(Nc3ccc4ccnc(Cl)c4n3)(CC1)CC2 [PA170] | ≤ 100
N#Cc1nccc2ccc(Nc3ccc(CNc4ncc(CC(=O)NC5COC5)cn4)cc3)nc12 [PA074] | > 1000
Cc1ccc2ccc(Nc3ccc([C@H](C)Nc4ncc(CN(CCO)C5CS(=O)(=O)C5)cn4)cc3F)nc2c1Cl [PA266] | ≤ 100
COc1nccc2ccc(Nc3ccc([C@H](C)Nc4ncc(N5CC(C#N)C5)cn4)cc3F)nc12 [PA206] | ≤ 100
COc1nccn2cc(Nc3ccc(CNc4ncc(CC(=O)NC5COC5)cn4)cc3)nc12 [PA253] | > 1000
CC(C(=O)NC1COC1)c1cnc(N[C@@H](C)C23CCC(Nc4ccc5ccnc(Cl)c5n4)(CC2)CC3)nc1 (stereo partly drawn) [PA169, 2-(2-(((S)-1-(4-((8-chloro-1,7-naphthyridin-2-yl)amino)bicyclo[2.2.2]octan-1-yl)ethyl)amino)pyrimidin-5-yl)-N-(oxetan-3-yl)propanamide] | ≤ 100
COc1nccc2ccc(Nc3ccc([C@@H](C)Nc4ncc(CC(=O)NC5COC5)cn4)cc3)nc12 (single isomer, unassigned) [PA062, 2-(2-((1-(4-((8-methoxy-1,7-naphthyridin-2-yl)amino)phenyl)ethyl)amino)pyrimidin-5-yl) acetic acid N-(oxetan-3-yl) acetamide] | 100 to 1000
